In patent US9388425B2, “Tunable genetic switch for regulating gene expression” (TRUSTEES OF BOSTON UNIVERSITY, priority 2006, dated 2016):

Test system: Rosa26 cells
Test: Apoptosis and cell death, annexin V and propidium iodide staining, flow cytometry, Rosa26 cells
Type: cell-based, mouse
Conditions: indicated levels of IPTG (0, 250 pM, 2.5 μM, 1 mM)
Description: Rosa26fibroblasts were obtained from embryonic day 14.5 Rosa26-R mice. The cells were maintained in embryonic fibroblast medium (high-glucose DMEM, 10% FBS, penicillin/streptomycin, L-glutamine, and sodium pyruvate) and grown in a humidified 5% CO2, 37CC incubator. These cells were transfected with 0.8 μg of LTRi-cre and LTRi-bax using Lipofectamine 2000 reagent (Invitrogen). The LTRi-cre cells were analyzed by β-galactosidase staining 48 hr after transfection. The LTRi-bax cells were stained and analyzed by flow cytometry 48 hr after transfection. […]
Cells were grown in 12-well plates, and 24 hr after plating, they were transfected with 0.8 μg of LTRi-bax using Lipofectamine 2000 reagent (Invitrogen) per the manufacturer's protocol and exposed to the indicated levels of IPTG. […] Annexin V has a high affinity for phosphatidylserine; therefore, annexin V conjugated with Alexa Fluor 488 can identify apoptotic cells by binding to phosphatidylserine and can be analyzed by flow cytometry measuring the fluorescence emission at 530 nm (FL1). […] It is impermeable to live and apoptotic cells but stains dead cells with red fluorescence. Dead cells appear red and can be analyzed by flow cytometry measuring the red florescence emission >575 nm (FL3). […]

Compound: CC(C)S[C@@H]1O[C@H](CO)[C@H](O)[C@H](O)[C@H]1O [IPTG, isopropyl-β-thiogalactopyranoside]
- apoptosis or cell death of non-transfected cells exposed to inducer: no change in apoptosis or cell death
